Data: ChEMBL document CHEMBL3272246, “Biological active polycycloalkanes. 4. Phosphoric esters of trimethylenenorbornyl alcohols” (J Med Chem, 1977)
≈ marks a conversion by molar mass, not a printed value. Structures can show the parent of a compound that is named as a salt.

Legend:
Newcastle disease virus [1] = assay: Antiviral activity against Newcastle disease virus infected in chick embryo fibroblasts assessed as suppression of virus multiplication to 1% by measuring hemagglutinating activity by tube assay method; format: functional; conditions: avian paramyxovirus 1
Newcastle disease virus [2] = assay: Ratio of amantadine hydrochloride MIC to compound MIC for Newcastle disease virus infected in chick embryo fibroblasts; format: functional, avian paramyxovirus 1
[3] = Cytotoxicity against chick embryo fibroblasts after 24 hrs by microscopic analysis; format: cell-based, Gallus gallus, Fibroblast; conditions: chicken

Row | Compound | MIC (Newcastle disease virus [1]) | Ratio (Newcastle disease virus [2]) | MCC at 24 h [3]
1 | O=P(O)(O[C@H]1C[C@H]2C[C@H]1[C@@H]1CCC[C@H]21)O[C@H]1C[C@H]2C[C@H]1[C@@H]1CCC[C@H]21 | 550 µM (≈ 202 µg/mL) | 2 | 550 µM
2 | O=P(O[C@H]1C[C@H]2C[C@H]1[C@@H]1CCC[C@H]21)(O[C@H]1C[C@H]2C[C@H]1[C@@H]1CCC[C@H]21)O[C@H]1C[C@H]2C[C@H]1[C@@H]1CCC[C@H]21 | 1000 µM (≈ 501 µg/mL) |  | 400 µM
3 | NC12CC3CC(CC(C3)C1)C2 [AMANTADINE HYDROCHLORIDE] | 1300 µM |  | 1300 µM
